Each compound was assayed on Wnt pathway (TCF-dependent transcription in HEK293 luciferase reporter cell line with ER-DSH construct) (assay: Cellular assay for Wnt pathway activity (luciferase reporter)). Settings: Homo sapiens; Wnt pathway inhibition, HEK293 luciferase reporter cells (ER-DSH, TCF promoter), 24 hours incubation, estrogen-induced.
Format: cell-based
In short: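 Luminescent luciferase read-out after 24 h compound exposure at 1 nM to 30 μM, with TCF-driven transcription switched on by estrogen addition. IC50 values come from curve fits of data normalized against the vehicle-only control.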
For `CC(=O)N(C)CCN(C)c1cncc(Oc2noc3ccccc23)n1` [Compound 224, N-(2-{[6-(Benzo[d]isoxazol-3-yloxy)-pyrazin-2-yl]-methyl-amino}-ethyl)-N-methyl-acetamide], the IC50 was less than 200 nM. `CC(=O)Nc1ccc(-c2ccc(Oc3cncc(N(C)CCN(C)C(C)=O)n3)c(F)c2)cn1` [Compound 225, N-[2-({6-[4-(6-Acetylamino-pyridin-3-yl)-2-fluoro-phenoxy]-pyrazin-2-yl}-methyl-amino)-ethyl]-N-methyl-acetamide] gave an IC50 of less than 200 nM. `CC(=O)N(C)CCN(C)c1cncc(Oc2ccc(-c3ccc(F)cn3)cc2F)n1` [Compound 226, N-[2-({6-[2-Fluoro-4-(5-fluoro-pyridin-2-yl)-phenoxy]-pyrazin-2-yl}-methyl-amino)-ethyl]-N-methyl-acetamide] was tested, and the IC50 was less than 200 nM. `COc1ccc(-c2ccc(Oc3cncc(N(C)CCN(C)C(C)=O)n3)c(F)c2)nc1` [Compound 227, N-[2-({6-[2-Fluoro-4-(5-methoxy-pyridin-2-yl)-phenoxy]-pyrazin-2-yl}-methyl-amino)-ethyl]-N-methyl-acetamide] was tested, and the IC50 was less than 200 nM. `CC(=O)N(C)CCN(C)c1cncc(Oc2ccc(-c3ccncc3C#N)cc2F)n1` [Compound 228, N-[2-({6-[4-(3-Cyano-pyridin-4-yl)-2-fluoro-phenoxy]-pyrazin-2-yl}-methyl-amino)-ethyl]-N-methyl-acetamide] was tested, and the IC50 was less than 200 nM. `CC(=O)N(C)CCN(C)c1cncc(Oc2ccc(-c3ccc(C)cn3)cc2F)n1` [Compound 229, N-[2-({6-[2-Fluoro-4-(5-methyl-pyridin-2-yl)-phenoxy]-pyrazin-2-yl}-methyl-amino)-ethyl]-N-methyl-acetamide] was tested, and the IC50 was less than 200 nM. With `CC(=O)Nc1ccc(-c2ccc(Oc3cncc(N(C)CCN(C)C(C)=O)n3)c(F)c2)nc1` [Compound 230, N-{6-[4-(6-{[2-(Acetyl-methyl-amino)-ethyl]-methyl-amino}-pyrazin-2-yloxy)-3-fluoro-phenyl]-pyridin-3-yl}-acetamide] the IC50 was less than 200 nM. With `CC(=O)N(C)CCN(C)c1cncc(Oc2ccc(C(=O)Nc3cccnc3)cc2)n1` [Compound 231, 4-(6-{[2-(Acetyl-methyl-amino)-ethyl]-methyl-amino}-pyrazin-2-yloxy)-N-pyridin-3-yl-benzamide] the IC50 was less than 200 nM. In the case of `CC(=O)N(C)CCN(C)c1cncc(Oc2ccc(CCC#N)cc2)n1` [Compound 232, N-[2-({6-[4-(2-Cyano-ethyl)-phenoxy]-pyrazin-2-yl}-methyl-amino)-ethyl]-N-methyl-acetamide], the IC50 is reported as less than 200 nM. `CC(=O)N(C)CCNc1cncc(Oc2ccc(-c3ccc(N4CCOCC4)nc3)cc2)n1` [Compound 233, N-Methyl-N-(2-{6-[4-(6-morpholin-4-yl-pyridin-3-yl)-phenoxy]-pyrazin-2-ylamino}-ethyl)-acetamide] gave an IC50 of 1000 to 10000 nM. `CC(=O)N(C)CCNc1cncc(Oc2ccc(-c3cccc(N4CCN(C)CC4)n3)cc2)n1` [Compound 234, N-Methyl-N-[2-(6-{4-[6-(4-methyl-piperazin-1-yl)-pyridin-2-yl]-phenoxy}-pyrazin-2-ylamino)-ethyl]-acetamide] showed an IC50 of less than 200 nM. In the case of `CC(=O)Nc1cccc(-c2ccc(Oc3cncc(NCCN(C)C(C)=O)n3)cc2)n1` [Compound 235, N-(2-{6-[4-(6-Acetylamino-pyridin-2-yl)-phenoxy]-pyrazin-2-ylamino}-ethyl)-N-methyl-acetamide], the IC50 is reported as 200 to 1000 nM. `CC(=O)N(C)CCN(C)c1cncc(Oc2ccc(-c3c(F)c(F)nc(F)c3F)cc2)n1` [Compound 236, N-Methyl-N-[2-(methyl-{6-[4-(2,3,5,6-tetrafluoro-pyridin-4-yl)-phenoxy]-pyrazin-2-yl}-amino)-ethyl]-acetamide] gave an IC50 of less than 200 nM. Work on `CC(=O)N(C)CCN(C)c1cncc(Oc2ccc(-c3cncc4[nH]ccc34)cc2)n1` [Compound 237, N-Methyl-N-[2-(methyl-{6-[4-(1H-pyrrolo[2,3-c]pyridin-4-yl)-phenoxy]-pyrazin-2-yl}-amino)-ethyl]-acetamide] yielded an IC50 of 200 to 1000 nM. `CC(=O)N(C)CCN(C)c1cncc(Oc2ccc(-c3cnc(N)cn3)cc2F)n1` [Compound 238, N-[2-({6-[4-(5-Amino-pyrazin-2-yl)-2-fluoro-phenoxy]-pyrazin-2-yl}-methyl-amino)-ethyl]-N-methyl-acetamide] was tested, and the IC50 was less than 200 nM. For `CC(=O)N(C)CCN(C)c1cncc(Oc2ccc(-c3ccc(N4CCOCC4)nc3)cc2F)n1` [Compound 239, N-[2-({6-[2-Fluoro-4-(6-morpholin-4-yl-pyridin-3-yl)-phenoxy]-pyrazin-2-yl}-methyl-amino)-ethyl]-N-methyl-acetamide], the IC50 was less than 200 nM. In the case of `COc1ccc(-c2ccc(Oc3cncc(NCCN(C)C(C)=O)n3)cc2)nc1` [Compound 240, N-(2-{6-[4-(5-Methoxy-pyridin-2-yl)-phenoxy]-pyrazin-2-ylamino}-ethyl)-N-methyl-acetamide], the IC50 is reported as 200 to 1000 nM. Work on `CC(=O)N(C)CCNc1cncc(Oc2ccc(-c3cnc(N)cn3)cc2)n1` [Compound 241, N-(2-{6-[4-(5-Amino-pyrazin-2-yl)-phenoxy]-pyrazin-2-ylamino}-ethyl)-N-methyl-acetamide] yielded an IC50 of 1000 to 10000 nM. `CC(=O)N(C)CCNc1cncc(Oc2ccc(-c3ccncc3C#N)cc2)n1` [Compound 242, N-(2-{6-[4-(3-Cyano-pyridin-4-yl)-phenoxy]-pyrazin-2-ylamino}-ethyl)-N-methyl-acetamide] gave an IC50 of 1000 to 10000 nM. `COc1cc(C(C)=O)ccc1Oc1cncc(N(C)CCN(C)C(C)=O)n1` [Compound 243, N-(2-{[6-(4-Acetyl-2-methoxy-phenoxy)-pyrazin-2-yl]-methyl-amino}-ethyl)-N-methyl-acetamide] gave an IC50 of 1000 to 10000 nM. Work on `C#CCOC(=O)Nc1ccc(-c2ccc(Oc3cncc(N(C)CCN(C)C(C)=O)n3)cc2)nc1` [Compound 244, {6-[4-(6-{[2-(Acetyl-methyl-amino)-ethyl]-methyl-amino}-pyrazin-2-yloxy)-phenyl]-pyridin-3-yl}-carbamic acid prop-2-ynyl ester] yielded an IC50 of less than 200 nM. `CC(=O)N(C)CCN(C)c1cncc(Oc2ccc(-c3ccc(N4CCNCC4)nc3)cc2)n1` [Compound 245, N-Methyl-N-[2-(methyl-{6-[4-(6-piperazin-1-yl-pyridin-3-yl)-phenoxy]-pyrazin-2-yl}-amino)-ethyl]-acetamide] gave an IC50 of less than 200 nM. Work on `CC(=O)N(C)CCN(C)c1cncc(Oc2ccc(C)nc2)n1` [Compound 246, N-Methyl-N-(2-{methyl-[6-(6-methyl-pyridin-3-yloxy)-pyrazin-2-yl]-amino}-ethyl)-acetamide] yielded an IC50 of 1000 to 10000 nM. `CNC(=O)CCN(C)c1cncc(Oc2ccc(-c3ccc(C)cn3)cc2)n1` [Compound 247, N-Methyl-3-(methyl-{6-[4-(5-methyl-pyridin-2-yl)-phenoxy]-pyrazin-2-yl}-amino)-propionamide] showed an IC50 of less than 200 nM. Compound `CC(=O)N(C)CCN(C)c1cncc(Oc2ccc(Br)c(F)c2F)n1` [Compound 248, N-(2-{[6-(4-Bromo-2,3-difluoro-phenoxy)-pyrazin-2-yl]-methyl-amino}-ethyl)-N-methyl-acetamide] has an IC50 of 200 to 1000 nM. `CC(=O)N(C)CCN(C)c1cncc(Oc2ccc(-c3ccc(Cl)cc3)c(F)c2F)n1` [Compound 249, N-(2-{[6-(4′-Chloro-2,3-difluoro-biphenyl-4-yloxy)-pyrazin-2-yl]-methyl-amino}-ethyl)-N-methyl-acetamide] was tested, and the IC50 was 200 to 1000 nM. With `CC(=O)N(C)CCN(C)c1cncc(Oc2cnc3[nH]ccc3c2)n1` [Compound 250, N-Methyl-N-(2-{methyl-[6-(1H-pyrrolo[2,3-b]pyridin-5-yloxy)-pyrazin-2-yl]-amino}-ethyl)-acetamide] the IC50 was 1000 to 10000 nM. With `CC(=O)N(C)CCN(C)c1cncc(Oc2ccc(-c3ccc(CCN)cc3)cc2)n1` [Compound 251, N-[2-({6-[4′-(2-Amino-ethyl)-biphenyl-4-yloxy]-pyrazin-2-yl}-methyl-amino)-ethyl]-N-methyl-acetamide] the IC50 was less than 200 nM. `CC(=O)N(C)CCN(C)c1cncc(Oc2ccc(-c3cc(Br)cnc3N)cc2)n1` [Compound 252, N-[2-({6-[4-(2-Amino-5-bromo-pyridin-3-yl)-phenoxy]-pyrazin-2-yl}-methyl-amino)-ethyl]-N-methyl-acetamide] was tested, and the IC50 was 200 to 1000 nM. Work on `CC(=O)N(C)CCN(C)c1cncc(Oc2ccc(-c3cccc(N4CCN(C)CC4)n3)cc2F)n1` [Compound 253, N-{2-[(6-{2-Fluoro-4-[6-(4-methyl-piperazin-1-yl)-pyridin-2-yl]-phenoxy}-pyrazin-2-yl)-methyl-amino]-ethyl}-N-methyl-acetamide] yielded an IC50 of less than 200 nM. `CC(=O)N(C)CCNc1cncc(Oc2ccc(-c3ccc(CO)nc3)cc2)n1` [Compound 254, N-(2-{6-[4-(6-Hydroxy-methyl-pyridin-3-yl)-phenoxy]-pyrazin-2-ylamino}-ethyl)-N-methyl-acetamide] showed an IC50 of 200 to 1000 nM. For `CC(=O)N(C)CCNc1cncc(Oc2ccc(-c3ccncc3)cc2)n1` [Compound 255, N-Methyl-N-{2-[6-(4-pyridin-4-yl-phenoxy)-pyrazin-2-ylamino]-ethyl}-acetamide], the IC50 was 1000 to 10000 nM. In the case of `CC(=O)N(C)CCN(C)c1cncc(Oc2ccc(-c3ccn(C)n3)c(F)c2F)n1` [Compound 256, N-[2-({6-[2,3-Difluoro-4-(1-methyl-1H-pyrazol-3-yl)-phenoxy]-pyrazin-2-yl}-methyl-amino)-ethyl]-N-methyl-acetamide], the IC50 is reported as 200 to 1000 nM. Compound `CC(=O)N(C)CCNc1cncc(Oc2ccc(-c3ccncc3C#N)cc2F)n1` [Compound 257, N-(2-{6-[4-(3-Cyano-pyridin-4-yl)-2-fluoro-phenoxy]-pyrazin-2-ylamino}-ethyl)-N-methyl-acetamide] has an IC50 of 200 to 1000 nM. Work on `CC(=O)Nc1ccc(-c2ccc(Oc3cncc(NCCN(C)C(C)=O)n3)c(F)c2)cn1` [Compound 258, N-[5-(4-{6-[2-(Acetyl-methyl-amino)-ethylamino]-pyrazin-2-yloxy}-3-fluoro-phenyl)-pyridin-2-yl]-acetamide] yielded an IC50 of 200 to 1000 nM. For `CC(=O)Nc1cccc(-c2ccc(Oc3cncc(NCCN(C)C(C)=O)n3)c(F)c2)n1` [Compound 259, N-(2-{6-[4-(6-Acetylamino-pyridin-2-yl)-2-fluoro-phenoxy]-pyrazin-2-ylamino}-ethyl)-N-methyl-acetamide], the IC50 was 1000 to 10000 nM.

From patent publication US9493444B2 (Merck Patent GmbH, priority 2012, dated 2016)
